Legend:
Type in all cases: cell-based
Conditions in all cases: compounds at 50 nM and 500 nM
[1] = molecular target: T1, CK1α (Homo sapiens, UniProt P48729+Q96SW2); test: Western blot degradation of CK1α in hPBMCs (24 h)
T1 construct: The supernatant was aspirated as the extracted total cell protein; endogenous in cells; host or cells: human peripheral blood mononuclear cells (hPBMCs)
Summary of the method: (§1)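 Immunoblot densitometry quantifies target loss in hPBMCs after a 24 h compound exposure (50 nM, 500 nM). Percent remaining is normalised band intensity; DC50 is the concentration giving half the DMSO-control band grayscale.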

[2] = molecular target: T2, IKZF2 (Homo sapiens, UniProt Q96SW2+Q9UKS7); test: Western blot degradation of IKZF2 in hPBMCs (24 h)
T2 construct: The supernatant was aspirated as the extracted total cell protein; endogenous in cells; host or cells: human peripheral blood mononuclear cells (hPBMCs)
Summary of the method: as §1

[3] = molecular target: T3, GSPT1 (Homo sapiens, UniProt P15170+Q96SW2); test: Western blot degradation of GSPT1 in hPBMCs (24 h)
T3 construct: The supernatant was aspirated as the extracted total cell protein; endogenous in cells; host or cells: human peripheral blood mononuclear cells (hPBMCs)
T3 sequence (P15170 whole entry): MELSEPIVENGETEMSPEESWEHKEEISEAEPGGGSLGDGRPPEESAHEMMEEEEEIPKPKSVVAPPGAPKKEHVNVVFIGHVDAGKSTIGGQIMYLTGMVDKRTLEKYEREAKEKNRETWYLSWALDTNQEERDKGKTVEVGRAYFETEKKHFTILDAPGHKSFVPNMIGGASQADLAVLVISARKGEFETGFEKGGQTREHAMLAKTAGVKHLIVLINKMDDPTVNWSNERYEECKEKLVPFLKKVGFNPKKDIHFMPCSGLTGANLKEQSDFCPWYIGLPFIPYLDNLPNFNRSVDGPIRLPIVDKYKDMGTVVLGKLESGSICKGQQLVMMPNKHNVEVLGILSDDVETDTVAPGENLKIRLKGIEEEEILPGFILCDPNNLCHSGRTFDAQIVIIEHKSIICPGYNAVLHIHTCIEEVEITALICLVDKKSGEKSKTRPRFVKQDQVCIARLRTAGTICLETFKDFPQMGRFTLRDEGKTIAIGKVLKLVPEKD
T3 sequence (Q96SW2 whole entry): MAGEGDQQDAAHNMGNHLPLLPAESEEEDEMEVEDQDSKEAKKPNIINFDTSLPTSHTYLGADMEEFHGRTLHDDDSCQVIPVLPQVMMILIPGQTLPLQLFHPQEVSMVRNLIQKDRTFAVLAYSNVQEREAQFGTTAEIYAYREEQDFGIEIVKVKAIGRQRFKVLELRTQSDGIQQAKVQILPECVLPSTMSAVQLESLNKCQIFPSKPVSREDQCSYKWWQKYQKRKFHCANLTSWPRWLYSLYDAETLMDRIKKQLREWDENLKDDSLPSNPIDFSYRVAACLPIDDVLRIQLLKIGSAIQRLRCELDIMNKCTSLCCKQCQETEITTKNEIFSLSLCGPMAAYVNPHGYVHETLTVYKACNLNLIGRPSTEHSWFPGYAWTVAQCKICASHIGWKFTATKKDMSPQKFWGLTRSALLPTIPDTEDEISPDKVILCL
T3 sequence (Q16531 whole entry partner): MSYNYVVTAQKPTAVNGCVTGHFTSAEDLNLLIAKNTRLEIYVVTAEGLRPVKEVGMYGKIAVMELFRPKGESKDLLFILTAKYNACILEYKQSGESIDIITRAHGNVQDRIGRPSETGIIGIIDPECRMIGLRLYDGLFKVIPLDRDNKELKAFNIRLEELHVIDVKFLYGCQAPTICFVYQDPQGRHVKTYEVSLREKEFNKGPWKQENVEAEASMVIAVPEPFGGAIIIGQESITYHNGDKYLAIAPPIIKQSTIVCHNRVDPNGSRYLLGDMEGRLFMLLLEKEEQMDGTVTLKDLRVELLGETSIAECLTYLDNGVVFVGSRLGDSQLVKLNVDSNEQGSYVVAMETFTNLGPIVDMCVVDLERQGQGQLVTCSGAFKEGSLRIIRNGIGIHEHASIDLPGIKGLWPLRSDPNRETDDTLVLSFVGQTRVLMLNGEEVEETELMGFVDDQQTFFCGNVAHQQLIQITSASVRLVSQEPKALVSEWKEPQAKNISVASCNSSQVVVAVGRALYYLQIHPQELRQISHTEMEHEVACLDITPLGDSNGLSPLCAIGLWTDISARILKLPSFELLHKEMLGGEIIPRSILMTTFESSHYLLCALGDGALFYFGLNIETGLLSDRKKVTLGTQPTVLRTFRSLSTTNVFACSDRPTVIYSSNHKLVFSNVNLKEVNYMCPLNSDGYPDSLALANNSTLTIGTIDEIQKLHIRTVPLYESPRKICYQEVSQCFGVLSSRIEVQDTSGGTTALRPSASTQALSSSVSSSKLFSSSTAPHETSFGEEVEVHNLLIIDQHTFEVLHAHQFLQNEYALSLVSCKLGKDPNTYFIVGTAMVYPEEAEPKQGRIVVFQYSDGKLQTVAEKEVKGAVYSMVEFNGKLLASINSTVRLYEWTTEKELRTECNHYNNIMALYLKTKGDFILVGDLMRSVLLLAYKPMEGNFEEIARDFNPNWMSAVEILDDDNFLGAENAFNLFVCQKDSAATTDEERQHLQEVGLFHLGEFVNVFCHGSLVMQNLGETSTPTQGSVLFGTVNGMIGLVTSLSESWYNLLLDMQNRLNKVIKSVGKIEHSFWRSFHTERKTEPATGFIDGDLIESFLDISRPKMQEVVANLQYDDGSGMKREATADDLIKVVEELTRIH
Summary of the method: as §1

[4] = molecular target: T4, IKZF3 (Homo sapiens, UniProt Q96SW2+Q9UKT9); test: Western blot degradation of IKZF3 in hPBMCs (24 h)
T4 construct: The supernatant was aspirated as the extracted total cell protein; endogenous in cells; host or cells: human peripheral blood mononuclear cells (hPBMCs)
T4 sequence (Q9UKT9 whole entry): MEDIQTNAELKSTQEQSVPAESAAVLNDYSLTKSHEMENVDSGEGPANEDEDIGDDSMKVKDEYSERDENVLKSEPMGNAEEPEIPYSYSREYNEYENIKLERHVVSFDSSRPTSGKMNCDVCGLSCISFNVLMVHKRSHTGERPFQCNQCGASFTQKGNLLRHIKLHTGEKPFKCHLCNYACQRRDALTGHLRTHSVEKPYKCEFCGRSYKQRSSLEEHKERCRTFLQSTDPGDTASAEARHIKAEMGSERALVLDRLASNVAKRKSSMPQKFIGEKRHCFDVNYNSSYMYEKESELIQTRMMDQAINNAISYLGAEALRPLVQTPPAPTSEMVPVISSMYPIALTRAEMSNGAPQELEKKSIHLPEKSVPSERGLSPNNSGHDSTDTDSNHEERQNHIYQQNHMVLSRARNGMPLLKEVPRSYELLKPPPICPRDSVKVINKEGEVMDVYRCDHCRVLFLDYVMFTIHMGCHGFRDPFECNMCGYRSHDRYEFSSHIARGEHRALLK
T4 sequence (Q96SW2 whole entry): as the sequence (Q96SW2 whole entry) above
T4 sequence (Q16531 whole entry partner): as the sequence (Q16531 whole entry partner) above
Summary of the method: as §1

[5] = molecular target: T5, WEE1 (Homo sapiens, UniProt P30291+Q96SW2); test: Western blot degradation of WEE1 in hPBMCs (24 h)
T5 construct: The supernatant was aspirated as the extracted total cell protein; endogenous in cells; host or cells: human peripheral blood mononuclear cells (hPBMCs)
T5 sequence (P30291 whole entry): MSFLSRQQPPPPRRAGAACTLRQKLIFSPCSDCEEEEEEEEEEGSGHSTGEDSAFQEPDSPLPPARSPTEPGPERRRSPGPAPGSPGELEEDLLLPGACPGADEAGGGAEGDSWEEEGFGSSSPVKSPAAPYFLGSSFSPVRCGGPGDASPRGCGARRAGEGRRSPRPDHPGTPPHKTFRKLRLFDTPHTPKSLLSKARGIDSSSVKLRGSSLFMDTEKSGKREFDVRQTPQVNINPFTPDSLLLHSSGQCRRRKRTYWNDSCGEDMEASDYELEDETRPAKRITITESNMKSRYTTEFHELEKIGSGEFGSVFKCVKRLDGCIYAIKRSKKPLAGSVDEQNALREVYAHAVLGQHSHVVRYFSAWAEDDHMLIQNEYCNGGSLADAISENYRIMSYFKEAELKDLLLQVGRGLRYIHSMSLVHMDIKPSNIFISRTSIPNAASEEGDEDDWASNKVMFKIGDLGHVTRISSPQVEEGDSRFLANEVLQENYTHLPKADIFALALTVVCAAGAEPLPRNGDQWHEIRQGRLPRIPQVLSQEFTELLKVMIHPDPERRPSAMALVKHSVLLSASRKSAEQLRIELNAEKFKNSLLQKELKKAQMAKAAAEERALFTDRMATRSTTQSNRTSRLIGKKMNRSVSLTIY
T5 sequence (Q96SW2 whole entry): as the sequence (Q96SW2 whole entry) above
T5 sequence (Q16531 whole entry partner): as the sequence (Q16531 whole entry partner) above
Summary of the method: as §1

[6] = molecular target: T6, IKZF1 (Homo sapiens, UniProt Q13422+Q96SW2); test: Western blot degradation of IKZF1 in hPBMCs (24 h)
T6 construct: The supernatant was aspirated as the extracted total cell protein; endogenous in cells; host or cells: human peripheral blood mononuclear cells (hPBMCs)
T6 sequence (Q13422 whole entry): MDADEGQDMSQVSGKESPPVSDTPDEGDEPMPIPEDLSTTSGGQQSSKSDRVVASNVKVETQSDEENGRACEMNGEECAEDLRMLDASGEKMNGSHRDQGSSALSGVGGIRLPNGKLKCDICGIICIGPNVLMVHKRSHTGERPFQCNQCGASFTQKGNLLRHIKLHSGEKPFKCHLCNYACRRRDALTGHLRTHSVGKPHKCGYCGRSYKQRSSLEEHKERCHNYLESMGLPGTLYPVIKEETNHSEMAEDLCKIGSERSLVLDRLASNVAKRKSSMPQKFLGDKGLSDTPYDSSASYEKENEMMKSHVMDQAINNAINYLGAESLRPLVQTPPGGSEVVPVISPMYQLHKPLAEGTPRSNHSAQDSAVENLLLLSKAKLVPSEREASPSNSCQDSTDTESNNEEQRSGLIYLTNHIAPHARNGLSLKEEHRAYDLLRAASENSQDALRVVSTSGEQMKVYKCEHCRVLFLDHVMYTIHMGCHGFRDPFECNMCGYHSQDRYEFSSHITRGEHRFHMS
T6 sequence (Q96SW2 whole entry): as the sequence (Q96SW2 whole entry) above
T6 sequence (Q16531 whole entry partner): as the sequence (Q16531 whole entry partner) above
Summary of the method: as §1

T1 sequence (P48729 whole entry): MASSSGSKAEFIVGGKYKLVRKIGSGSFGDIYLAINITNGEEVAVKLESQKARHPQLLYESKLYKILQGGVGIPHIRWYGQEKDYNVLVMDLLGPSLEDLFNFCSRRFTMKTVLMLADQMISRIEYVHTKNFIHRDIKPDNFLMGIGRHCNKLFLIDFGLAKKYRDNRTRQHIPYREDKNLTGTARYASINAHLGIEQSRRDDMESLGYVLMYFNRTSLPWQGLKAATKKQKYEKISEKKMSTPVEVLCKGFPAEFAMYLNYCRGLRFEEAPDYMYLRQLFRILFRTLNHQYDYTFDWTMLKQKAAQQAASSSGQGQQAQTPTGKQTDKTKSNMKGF
T1 sequence (Q96SW2 whole entry): as the sequence (Q96SW2 whole entry) above
T1 sequence (Q16531 whole entry partner): as the sequence (Q16531 whole entry partner) above

| SMILES | CK1α substrate protein remaining % [1] | IKZF2 substrate protein remaining % [2] | GSPT1 substrate protein remaining % [3] | IKZF3 substrate protein remaining % [4] | WEE1 substrate protein remaining % [5] | IKZF1 substrate protein remaining % [6] |
| --- | --- | --- | --- | --- | --- | --- |
| O=C1CCN(N2C(=O)c3ccc(CN4CC=C(c5cccc6c(F)cccc56)CC4)cc3C2=O)C(=O)N1 [GT-07687, 2-(2,4-dioxotetrahydropyrimidin-1(2H)-yl)-5-((4-(5-fluoronaphthalen-1-yl)-3,6-dihydropyridin-1(2H)-yl)methyl)isoindoline-1,3-dione] | B (80%< substrate protein remaining % ≤100%) | B (80%< substrate protein remaining % ≤100%) | A (0% ≤ substrate protein remaining % ≤80%) | B (80%< substrate protein remaining % ≤100%) | B (80%< substrate protein remaining % ≤100%) | B (80%< substrate protein remaining % ≤100%) |
| O=C1CCN(N2C(=O)c3ccc(CN4CCC(c5cccc6cnccc56)CC4)cc3C2=O)C(=O)N1 [GT-07688, 2-(2,4-dioxotetrahydropyrimidin-1(2H)-yl)-5-((4-(isoquinolin-5-yl)piperidin-1-yl)methyl)isoindoline-1,3-dione] | B (80%< substrate protein remaining % ≤100%) | B (80%< substrate protein remaining % ≤100%) | A (0% ≤ substrate protein remaining % ≤80%) | B (80%< substrate protein remaining % ≤100%) | B (80%< substrate protein remaining % ≤100%) | B (80%< substrate protein remaining % ≤100%) |
| O=C1CCN(N2C(=O)c3ccc(CN4CCC(c5ccnc6cc(F)ccc56)CC4)cc3C2=O)C(=O)N1 [GT-07689, 2-(2,4-dioxotetrahydropyrimidin-1(2H)-yl)-5-((4-(7-fluoroquinolin-4-yl)piperidin-1-yl)methyl)isoindoline-1,3-dione] | A (0% ≤ substrate protein remaining % ≤80%) | B (80%< substrate protein remaining % ≤100%) | A (0% ≤ substrate protein remaining % ≤80%) | B (80%< substrate protein remaining % ≤100%) | B (80%< substrate protein remaining % ≤100%) | B (80%< substrate protein remaining % ≤100%) |
| O=C1CCN(N2Cc3cc(CN4CC(C5CCOc6cc(F)ccc65)C4)ccc3C2=O)C(=O)N1 (stereo not drawn) [GT-07690, 1-(5-((3-(7-fluorochroman-4-yl)azetidin-1-yl)methyl)-1-oxoisoindolin-2-yl)dihydropyrimidine-2,4(1H,3H)-dione] | A (0% ≤ substrate protein remaining % ≤80%) | A (0% ≤ substrate protein remaining % ≤80%) | A (0% ≤ substrate protein remaining % ≤80%) | B (80%< substrate protein remaining % ≤100%) | B (80%< substrate protein remaining % ≤100%) | B (80%< substrate protein remaining % ≤100%) |
| O=C1CCN(N2Cc3cc(CN4CC(c5ccnc6cc(F)ccc56)C4)ccc3C2=O)C(=O)N1 [GT-07711, 1-(5-((3-(7-fluoroquinolin-4-yl)azetidin-1-yl)methyl)-1-oxoisoindolin-2-yl)dihydropyrimidine-2,4(1H,3H)-dione] | A (0% ≤ substrate protein remaining % ≤80%) | A (0% ≤ substrate protein remaining % ≤80%) | A (0% ≤ substrate protein remaining % ≤80%) | A (0% ≤ substrate protein remaining % ≤80%) | B (80%< substrate protein remaining % ≤100%) | A (0% ≤ substrate protein remaining % ≤80%) |
| O=C1CCN(N2C(=O)c3ccc(CN4CC(C5CCOc6cc(F)ccc65)C4)cc3C2=O)C(=O)N1 (stereo not drawn) [GT-07715, 2-(2,4-dioxotetrahydropyrimidin-1(2H)-yl)-5-((3-(7-fluorochroman-4-yl)azetidin-1-yl)methyl)isoindoline-1,3-dione] | A (0% ≤ substrate protein remaining % ≤80%) | B (80%< substrate protein remaining % ≤100%) | A (0% ≤ substrate protein remaining % ≤80%) | B (80%< substrate protein remaining % ≤100%) | B (80%< substrate protein remaining % ≤100%) | B (80%< substrate protein remaining % ≤100%) |
| O=C1CCN(N2C(=O)c3ccc(CN4CC(c5ccnc6cc(F)ccc56)C4)cc3C2=O)C(=O)N1 [GT-07718, 2-(2,4-dioxotetrahydropyrimidin-1(2H)-yl)-5-((3-(7-fluoroquinolin-4-yl)azetidin-1-yl)methyl)isoindoline-1,3-dione] | A (0% ≤ substrate protein remaining % ≤80%) | B (80%< substrate protein remaining % ≤100%) | A (0% ≤ substrate protein remaining % ≤80%) | A (0% ≤ substrate protein remaining % ≤80%) | B (80%< substrate protein remaining % ≤100%) | B (80%< substrate protein remaining % ≤100%) |
| O=C1CCN(N2Cc3cc(CN4CCn5c(nnc5C(F)(F)F)C4)ccc3C2=O)C(=O)N1 [GT-07719, 1-(1-oxo-5-((3-(trifluoromethyl)-5,6-dihydro-[1,2,4]triazolo[4,3-a]pyrazin-7 (8H)-yl)methyl)isoindolin-2-yl)dihydropyrimidine-2,4(1H,3H)-dione] | A (0% ≤ substrate protein remaining % ≤80%) | A (0% ≤ substrate protein remaining % ≤80%) | A (0% ≤ substrate protein remaining % ≤80%) | A (0% ≤ substrate protein remaining % ≤80%) | B (80%< substrate protein remaining % ≤100%) | B (80%< substrate protein remaining % ≤100%) |
| O=C1CCN(N2Cc3cc(CN4CCc5sccc5C4)ccc3C2=O)C(=O)N1 [GT-07720, 1-(5-((6,7-dihydrothieno[3,2-c]pyridin-5 (4H)-yl)methyl)-1-oxoisoindolin-2-yl)dihydropyrimidine-2,4(1H,3H)-dione] | A (0% ≤ substrate protein remaining % ≤80%) | A (0% ≤ substrate protein remaining % ≤80%) | A (0% ≤ substrate protein remaining % ≤80%) | A (0% ≤ substrate protein remaining % ≤80%) | A (0% ≤ substrate protein remaining % ≤80%) | A (0% ≤ substrate protein remaining % ≤80%) |
| O=C1CCN(N2Cc3cc(CN4CCN(Cc5ccc(C67CC8CC(CC(C8)C6)C7)cc5)CC4)ccc3C2=O)C(=O)N1 [GT-07721, 1-(5-((4-(4-((3r,5r,7r)-adamantan-1-yl)benzyl)piperazin-1-yl)methyl)-1-oxoisoindolin-2-yl)dihydropyrimidine-2,4(1H,3H)-dione] | A (0% ≤ substrate protein remaining % ≤80%) | A (0% ≤ substrate protein remaining % ≤80%) | A (0% ≤ substrate protein remaining % ≤80%) | A (0% ≤ substrate protein remaining % ≤80%) | A (0% ≤ substrate protein remaining % ≤80%) | A (0% ≤ substrate protein remaining % ≤80%) |
| O=C1CCN(N2C(=O)c3ccc(CN4CCN(Cc5ccc(C67CC8CC(CC(C8)C6)C7)cc5)CC4)cc3C2=O)C(=O)N1 [GT-07722, 5-((4-(4-((3r,5r,7r)-adamantan-1-yl)benzyl)piperazin-1-yl)methyl)-2-(2,4-dioxotetrahydropyrimidin-1(2H)-yl)isoindoline-1,3-dione] | A (0% ≤ substrate protein remaining % ≤80%) | A (0% ≤ substrate protein remaining % ≤80%) | A (0% ≤ substrate protein remaining % ≤80%) | A (0% ≤ substrate protein remaining % ≤80%) | A (0% ≤ substrate protein remaining % ≤80%) | B (80%< substrate protein remaining % ≤100%) |
| O=C1CCN(N2Cc3cc(CNC45CC6CC(CC(O)(C6)C4)C5)ccc3C2=O)C(=O)N1 [GT-07784, 1-(5-((((1r,3s,5R,7S)-3-hydroxyadamantan-1-yl)amino)methyl)-1-oxoisoindolin-2-yl)dihydropyrimidine-2,4(1H,3H)-dione] | B (80%< substrate protein remaining % ≤100%) | A (0% ≤ substrate protein remaining % ≤80%) | B (80%< substrate protein remaining % ≤100%) | B (80%< substrate protein remaining % ≤100%) | B (80%< substrate protein remaining % ≤100%) | B (80%< substrate protein remaining % ≤100%) |

Source: patent publication US20260356819A1, “OXOISOINDOLINYL-SUBSTITUTED […] DERIVATIVE AND USE THEREOF” (GLUETACS THERAPEUTICS (SHANGHAI) CO., LTD., priority 2023, published 2026)
